In patent US8008502B2, “Thiazoline acid derivatives” (University of Florida Research Foundation, Inc., priority 1998, dated 2011):

Columns and labels:
animal models = conditions: literature; cited from earlier work
[1] = test system: non-iron-overloaded, bile duct-cannulated rat; assay: Iron excretion in the non-iron-overloaded, bile duct-cannulated rat; type: in vivo; conditions: 150 μmol/kg p.o., solution in 40% Cremophor-H2O, rats fasted for 24 hours
Procedure: Preparation of Drugs. Drug solutions were prepared in 60% water, 40% Cremophor RH-40.
Initial testing of 1 was performed in the non-iron-overloaded, bile duct-cannulated rat [J. Med. Chem., Vol. 34, Bergeron et al, “Synthesis and Biological Evaluation of Hydroxamate-Based Iron Chelators,” pages 3182-3187 (1991)]. The drug was prepared as a solution in 40% Cremophor-H2O and administered at a dose of 150 μmol/kg p.o. The rats were fasted for 24 hours before dosing. The efficiency of iron excretion induced by 1 was 2.4±0.92%.

[2] = test system: iron-overloaded primate model; conditions: po, 150 umol/kg, 24 h
Procedure: The drug was prepared as a solution in 40% Cremophor-H2O and administered at a dose of 1.50 μmol/kg p.o. The monkeys were fasted for 24 hours before dosing.

| Structure (SMILES) | clearing iron (animal models) | efficiency of iron excretion [1] [%] | efficiency (iron excretion) [2] [%] |
| --- | --- | --- | --- |
| CC(=O)N(O)CCC[C@@H]1NC(=O)[C@H](CCCN(O)C(C)=O)NC1=O [rhodotorulic acid] | reasonably active | – | – |
| O=C(O)[C@H]1CSC(c2ccc(O)cc2O)=N1 [Compound 1, 4,5-dihydro-2-(2,4-dihydroxyphenyl)-thiazole-4(S)-carboxylic acid] | – | 2.4±0.92 | 4.2±1.4 |
| O=C(N[C@H]1COC(=O)[C@@H](NC(=O)c2cccc(O)c2O)COC(=O)[C@@H](NC(=O)c2cccc(O)c2O)COC1=O)c1cccc(O)c1O [enterobactin] | only marginally effective | – | – |
